Source: US20050054620A1, “Paricalcitol as a chemotherapeutic agent” (priority 2003, published 2005)
Entries after “also recorded” stand apart in the source; their conditions may differ.

Tests used:
Type in all cases: cell-based, human
[1] = system: HL-60 cells; experiment: Western blot of cell lysates; details: for phosphorylation of Rb / expression of Bax / expression of C/EBPβ: 3 days; for expression of Bax / expression of C/EBPβ / expression of phosphorylated-ERK: paricalcitol 0.01 μM, arsenic trioxide 0.8 μM; for expression of phosphorylated-ERK: peak after 1 day
Protocol: (§1) Western blot analysis was used to determine the levels of proteins involved in cell cycle and differentiation. For western blot analysis, cells were washed twice in PBS, suspended in lysis buffer [50 mM Tris (pH 8.0), 150 mM NaCl, 0.1% SDS, 0.5% sodium deoxycholate, 1% NP40, […] phenylmethylsulfonyl fluoride, […] aprotinin, […] pepstatin, and […] leupetin] and placed on ice for 30 min. After centrifugation at 15,000×g for 15 min at 4° C., the suspension was collected. Protein concentrations were quantitated using the Bio-Rad assay (Bio-Rad Labolatories, Hercules, Calif.). Whole lysates ([…]) were resolved by 4-15% SDS polyacrylamide gel, transferred to an immobilon polyvinylidene difuride membrane (Amersham Corp., Arlington Heights, Ill.), and probed sequentially with a number of antibodies (p21WAF1, p27KIP1, PTEN, and GAPDH, Santa Cruz Biotechnology Inc., Santa Cruz, Calif.). The blots were developed using the Supersignal West Pico Chemiluminescent Substrate Kit (Pierce, Rockford, Ill.).
(§2) Western blot analysis was performed as follows: cells were washed twice in PBS, suspended in lysis buffer (50 mM Tris at pH 8.0, 150 mM NaCl, 0.1% SDS, 0.5% sodium deoxycholate, 1% Nonidet P-40, phenylmethylsulfonyl fluoride at 100 μg/mL, aprotinin at 2 μg/mL, pepstatin at 1 μg/mL, and leupetin at 10 μg/mL), and placed on ice for 30 minutes. After centrifugation at 15,000×g for 15 minutes at 4° C., the suspension was collected. Protein concentrations were quantitated by using the Bio-Rad protein Assay Dye Reagent Concentrate (Bio-Rad Laboratories, Hercules, Calif.) according to the manufacture's recommendation. Whole cell lysates (40 μg) were resolved by SDS-polyacrylamide gel electrophoresis in a 4%-15% gel, transferred to a polyvinylidene difuride membrane (Immobilon, Amersham Corp., Arlington Heights, Ill.), and probed sequentially with antibodies against the following proteins: VDR, RXR, CEBPβ, Rb, Bcl-2, Bcl-XL, Bax, p-ERK, RARA, GAPDH (Santa Cruz Biotechnology Inc., Santa Cruz, CA). The blots were developed using the Supersignal West Pico Chemiluminescent Substrate Kit (Pierce, Rockford, Ill.).

[2] = system: NB-4 cells; experiment: Western blot of cell lysates
Protocol: as §1, §2

[3] = system: HL-60 cells; experiment: CD14 expression by flow cytometry; details: for cell surface CD14 expression: paricalcitol 0.01 μM, arsenic trioxide 0.8 μM, 3 days
Protocol: In order to measure cell surface CD14 antigen on HL-60 cells, promyelocytic leukemia cell line, HL-60, was treated with either 1,25(OH)2D3 or paricalcitol (10^−7M) for 4 days and examined for CD14 expression by flow cytometry using CD14 antibody (DAKO, Carpinteria, Calif.), as described previously (Hisatake et al., supra, 2001). Murine IgG1 antibody (DAKO) was used as a control.
Measurement of cell surface CD14 antigen on HL-60 cells by flow cytometry using CD14 antibody (DAKO, Carpinteria, Calif.), was determined as described previously (Hisatake et al. Blood 97:2427-2433 (2001)). Murine IgG1 antibody (DAKO) was used as a control.

[4] = system: NCI-H929 cells; experiment: Cell cycle analysis by flow cytometry; details: for G0/G1 arrest / accumulation / sub-G1 population: 0.01 μM each, 3 days
Protocol: For cell cycle analysis, cells were exposed to 10^−7M 1,25(OH)2D3, 10^−7M paricalcitol or vehicle control for either 3 or 4 days. Total cells, both in suspension and adherent, were collected, washed, suspended in cold PBS. Then cells were fixed in 75% chilled methanol and stained with propidium iodine. Cell cycle status was analyzed on a Becton Dickinson Flow Cytometer.
HCI-H929 cells were cultured with either paricalcitol (10^−7M) or 1,25(OH)2D3 (10^−7M) for 72 hrs, harvested and stained with propidium iodine (PI). Control cells were treated with vehicle alone.

[5] = system: NCI-H929 cells; experiment: TUNEL assay of apoptosis; details: for apoptotic cells by TUNEL assay: 0.01 μM each, 3 days
Protocol: In FIG. […] Results represent the mean±SD of three independent experiments. A TUNEL assay was performed for immunohistochemical detection and quantification of programmed cell death at the single cell level, based on labeling of DNA strand breaks using the In Situ Cell Death Detection, POD (Roche, Indianapolis, Ind.). Early apoptosis was also detected by measuring annexin V protein in the cell membrane using Annexin V-FITC Kit (CLONTECH, Palo Alto, Calif.) followed by flow cytometric analysis.

[6] = system: HL-60 myeloid leukemia cells; experiment: MTT assay; details: 4 days exposure
[7] = system: NB-4 cells; experiment: Cell cycle analysis by flow cytometry (sub-G1); details: paricalcitol 0.1 μM and/or arsenic trioxide 0.6 μM, 4 days, control 4%
Protocol: Cell cycle analysis was performed as follows: after treatment of 5×10^4 of cells with a selected compound, cells were collected, washed and suspended in cold PBS. Cells were fixed in chilled 75% methanol and stained with propidium iodine. Cell cycle status was analyzed on a Becton Dickinson Flow Cytometer used standart protocols.

Compound | expression of VDR and RXR [1] | induction of PTEN ([1]; 10^−7M, 72 hr) | induction of p21WAF1 ([1]; 10^−7M, 72 hr) | induction of p27KIP1 ([1]; 10^−7M, 72 hr) | phosphorylation of Rb [1] | expression of Bax [1] | expression of C/EBPβ [1] | expression of phosphorylated-ERK [1] | induction of PTEN ([2]; 10^−7M, 72 hr) | cells induced to express CD14 ([3]; 10^−7M, 96 hrs) | cell surface CD14 expression [3] | G0/G1 arrest / accumulation [4] | sub-G1 population [4] | increase of accumulation in G1/G0 phase ([4]; 10^−7M, 72 hrs) | increase in apoptotic sub-G1 population ([4]; 10^−7M, 72 hrs, diluant control 4% sub-G1) | apoptotic cells by TUNEL assay [5] | apoptotic cells (TUNEL) ([5]; 10^−7M, 96 hrs, diluant control 4%) | antiproliferative effect by MTT assay [6] | cells in sub-G1 population [7] | protein level of PML-RAR ([2]; arsenic trioxide 0.6 μM, paricalcitol 0.1 μM, 3 days)
C[C@H](/C=C/[C@H](C)C(C)(C)O)[C@H]1CC[C@H]2/C(=C/C=C3C[C@@H](O)C[C@H](O)C3)CCC[C@]12C [paricalcitol, 19-nor-1,25, (OH)2D3] | not substantially changed | 7 fold | approximately 7 fold | about 6 fold | increased | not changed | increased | increased | 25 fold | 65% | increased cell surface CD14 | induced G0/G1 arrest | increased | 7% | 21% | increased | 31% | suppressed the cell growth in a dose-dependent manner; also recorded: sensitive | 5% | –
arsenic trioxide | not substantially changed | – | – | – | increased | not changed | also increased its expression level | also increased | – | – | did not | induced G0/G1 arrest | increased | – | – | increased | – | suppressed the cell growth in a dose-dependent manner | 33% | decreased the protein level of PML-RAR
